{
  "source": "patent US20060088886A1",
  "about": "“Topiramate analogs” (priority 2004, published 2006)",
  "key": {"[1]": {"test_system": "sheep polyclonal antibodies that bind with topiramate prepared from immunogen (18)", "assay": "QMS homogeneous particle-enhanced immunoturbidimetric assay", "format": "binding", "settings": "Polyclonal antibody R1, Topiramate antigen (19) coated Latex", "method": "An immunoturbidimetric or QMS® assay, which is a homogeneous particle-enhanced immunoturbidimetric experiment, is performed to test the polyclonal antibodies prepared as in Example 21. […] Additionally, suitable specimens can be prepared from serum and plasma. Serum can be collected by standard venipuncture techniques and placed into glass or plastic tubes with or without gel barriers. […] In the instance the specimen is centrifuged before a complete clot forms, the presence of fibrin may cause erroneous results. Accordingly, the serum can be separated from red blood cells as soon after collection as possible. Plasma can also be used with acceptable anticoagulants, such as lithium heparin, sodium heparin, potassium EDTA, and a heparin gel plasma separator. The plasma can be collected by standard venipuncture techniques and placed into glass or plastic tubes. Also, centrifugation is used to ensure the adequate removal of platelets. The plasma can be separated from red blood cells as soon as possible after collection. The specimens that contain particulate matter or red blood cells may give inconsistent results, but can be centrifuged before testing at a recommended 8,000 to 10,000 RCF×10 minutes to produce a suitable specimen. The assay procedure is initiated by diluting the specimen because the specimens with topiramate can be used to generate results that exceed the highest calibrator value. As such, the specimens may be diluted manually or by using an automated onboard dilution protocol. The assay is based on competition for topiramate-specific antibody binding sites between drug in the sample and drug coated onto a microparticle of topiramate-coated microparticle reagent is rapidly agglutinated in the presence of the anti-topiramate antibody reagent and in the absence of any competing drug in the sample. The rate of absorbance change is measured photometrically, and is directly proportional to the rate of agglutination of the particles. […] A concentration-dependent classic agglutination inhibition curve can be obtained, with maximum rate of agglutination at the lowest topiramate concentration (at zero μg/ml) and the lowest agglutination rate at the highest topiramate concentration (32 μg/ml). The QMS® topiramate assay is initiated after the being calibrated using a full calibration (6-point) procedure. The QMS® is performed as directed in operation manuals in accordance with the average skill of one in the art."}, "[2]": {"settings": "cited from earlier work"}, "[3]": {"settings": "dose escalation add-on studies, morning trough serum"}},
  "data": [
    {"smiles": "CC1(C)O[C@@H]2[C@@H](CO[C@@]3(COS(N)(=O)=O)OC(C)(C)O[C@@H]23)O1", "note": "[Topiramate, 2,3:4,5-di-O-isopropylidene-beta-D-fructopyranose sulfamate]", "values": [
      {"measurement": "Rate (Delta Absorbance)", "setting": "[1]; topiramate 2 μg/ml sample", "result": 159},
      {"measurement": "Rate (Delta Absorbance)", "setting": "[1]; topiramate 4 μg/ml sample", "result": 122},
      {"measurement": "Rate (Delta Absorbance)", "setting": "[1]; topiramate 8 μg/ml sample", "result": 60},
      {"measurement": "Rate (Delta Absorbance)", "setting": "[1]; topiramate 16 μg/ml sample", "result": 16},
      {"measurement": "Rate (Delta Absorbance)", "setting": "[1]; topiramate 32 μg/ml sample", "result": 4},
      {"measurement": "serum concentration at which a reduction in seizure control was seen", "setting": "[2]; [3]", "result": "greater than 75 μmol/L"},
      {"measurement": "serum concentration with significant increase in side effects", "setting": "[2]; [3]", "result": "> 60", "unit": "µM"},
      {"measurement": "systemic topiramate concentrations", "setting": "[2]; patients receiving higher doses, up to 2000 mg", "result": "≤ 80", "unit": "µmol/L"}
    ]}
  ]
}
